Measurements: US20200297798A1, “KEY AMINO ACID SITES […] EXPORT OF NUC[…] INFLUENZA A AND B VIRUSES AND USE THEREOF AS ANTI-INFLUENZA VIRUS DRUG TARGETS” (INSTITUTE OF MICROBIOLOGY, CHINESE ACADEMY OF SCIENCES, priority 2017, published 2020)

Key:
ANP Y148F = ANP Y148F (Influenza A virus, UniProt P15682, Y148F)
BNP F209A = BNP F209A (Influenza B virus, UniProt P04665, F209A)

COc1ccc2cc(C(C)C(=O)O)ccc2c1 (stereo not drawn) [naproxen, (+) α-methyl-6-methoxy-2-naphthaleneacetic acid]
n (stoichiometry) (ANP Y148F): 0.10 | ΔH (ANP Y148F): -10.92 kcal/mol | ΔS (ANP Y148F): −83.45 J/mol · K | n (stoichiometry) (BNP F209A): 1.68 | ΔH (BNP F209A): -0.167 kcal/mol | ΔS (BNP F209A): 102.6 J/mol · K
